Laboratory results published in ChEMBL document CHEMBL1141634, “Cathepsin B inhibitory activities of phthalates isolated from a marine Pseudomonas strain” (Bioorg Med Chem Lett, 2008).

Experiments:
B16-F10 = test: Cytotoxicity against mouse B16F10 cells by MTT assay; assay type: functional
Cathepsin B [1] = biological target: Cathepsin B (Homo sapiens, UniProt P07858); test: Inhibition of cathepsin B
Cathepsin B [2] = biological target: Cathepsin B (Mus musculus, UniProt P10605); test: Inhibition of cathepsin B in mouse B16F10 cells; assay type: cell-based, B16-F10
Cathepsin B (Mus musculus, UniProt P10605), sequence (P10605 whole entry): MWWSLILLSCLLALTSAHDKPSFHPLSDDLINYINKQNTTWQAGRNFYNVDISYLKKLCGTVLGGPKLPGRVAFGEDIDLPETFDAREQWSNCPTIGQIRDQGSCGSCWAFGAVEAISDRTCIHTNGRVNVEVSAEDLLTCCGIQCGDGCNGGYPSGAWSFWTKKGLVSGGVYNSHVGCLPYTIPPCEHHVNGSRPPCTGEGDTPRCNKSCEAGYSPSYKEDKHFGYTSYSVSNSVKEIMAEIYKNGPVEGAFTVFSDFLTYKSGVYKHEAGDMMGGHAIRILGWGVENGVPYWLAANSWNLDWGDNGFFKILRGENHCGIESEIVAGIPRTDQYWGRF

SMILES	Activity (B16-F10) [%]	IC50 (Cathepsin B [1]) [µM]	IC50 (Cathepsin B [2]) [µM]
CCCC[C@@H](CC)COC(=O)c1ccccc1C(=O)OC[C@@H](CC)CCCC [BIS(2-ETHYLHEXYL)PHTHALATE]	7.34	380	140
CCCCOC(=O)c1ccccc1C(=O)OCCCC [DIBUTYL PHTHALATE]	9.45	420	230
